Data taken from patent publication US11866405B2, “Substituted indazoles as IRAK4 inhibitors” (AstraZeneca AB, priority 2020, dated 2024).
Read-outs that look alike come from different tables or passages of the source.

Key:
[1] = test system: IL-1β stimulated IL-8 release in hTHP1 cells; assay: IL-1β-induced IL-8 release in human THP-1 monocyte cell line; type: cell-based; conditions: THP-1 cells, IL-1β 1.8 ng/mL
Procedure: Effect of IRAK4 Inhibitors on IL-1β-Induced Cytokine Release in Human THP-1 Monocyte Cell Line
THP-1 cells were cultured in RPMI 1640 (Gibco 72400-021) containing 10% FBS (Gibco 10270-106), 1 mM Na-pyruvate (Gibco 11360-070) and 100 U/mL Penicillin-Streptomycin (Gibco 15140-122). Cells were plated at 5×10^4 cells per well in 384 well Echo certified plates (Labcyte PPT-0200) to which compounds had been added at various concentrations (10 point half log dose response with a final top concentration of 10 μM) using an Echo 655 (Labcyte Inc). The plate was incubated for 1 h at 37° C., then recombinant […] (R&D Systems 201-LB-025/CF) was added to a final concentration of 1.8 ng/mL. The plates were incubated at 37° C. for 18h. The plates were centrifuged at 250×g for four minutes, then 1.6 μL of the cell supernatant was transferred to a white low volume 384 well plate (Greiner #784075) using acoustic dispensing on an Echo 655. Next, 200 nL of acceptor bead (5 mg/mL) and biotinylated anti-IL-8 antibody (500 nM) was added using acoustic dispensing (beads and antibody were from a PerkinElmer 18 Alpha LISA detection kit, AL224C). The plate was sealed, briefly centrifuged, then incubated at room temperature for 1 h. Afterwards, 200 nL of donor bead solution (5 mg/mL) was added, the plate sealed and briefly centrifuged, then incubated for 1 h before being read on an Envision plate reader to allow determination the concentration of IRAK4 inhibitor required to effect a 50% reduction in the amount of IL-8 released following IL-1β stimulation in THP1 cells (Table 2). The quantified data were analysed in Genedata Screener 15 (Genedata AG). Data presented are the geometric mean of at least n=2, or as denoted by an * are obtained from a single experiment.

[2] = target: human recombinant IRAK4 protein (Homo sapiens (Human), UniProt Q9NWZ3); assay: IRAK4 enzyme assay (mass spectrometry readout); type: biochemical; conditions: 3 mM ATP, 0.2 nM enzyme; geometric mean of at least n=2, * single experiment
Chain of human recombinant IRAK4 protein (Q9NWZ3 whole entry): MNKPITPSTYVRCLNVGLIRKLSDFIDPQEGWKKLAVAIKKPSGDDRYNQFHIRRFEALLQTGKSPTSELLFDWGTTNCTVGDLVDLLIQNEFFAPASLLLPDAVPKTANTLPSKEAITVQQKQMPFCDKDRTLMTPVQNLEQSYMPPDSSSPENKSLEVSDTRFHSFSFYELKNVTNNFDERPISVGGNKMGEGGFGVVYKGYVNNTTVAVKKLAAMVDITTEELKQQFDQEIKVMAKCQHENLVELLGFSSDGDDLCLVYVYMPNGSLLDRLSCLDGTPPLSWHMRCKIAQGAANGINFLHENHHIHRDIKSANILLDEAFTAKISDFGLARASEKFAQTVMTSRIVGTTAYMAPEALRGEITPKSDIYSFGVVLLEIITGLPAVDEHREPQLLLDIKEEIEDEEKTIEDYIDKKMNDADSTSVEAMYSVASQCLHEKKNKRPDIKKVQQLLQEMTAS
In short: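 0.2 nM IRAK4 preincubated 15 min at room temperature with compound (10-point half-log series, top 1 μM or 10 μM) in pH 7.4 Tris buffer with 3 mM ATP; 10 μM peptide substrate added, 2 h at room temperature, formic acid stop. Phospho/unphospho peptide ratio by LC-MS/MS; potency from curve fit, geometric mean of n≥2 or single run.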

[3] = target: IRAK4 auto-phosphorylation (Homo sapiens (Human), UniProt Q9NWZ3); assay: IRAK4 phosphorylation cell assay in IL-1β-stimulated Karpas-299 cells; type: cell-based; conditions: IL-1β 22.7 ng/mL, pIRAK4 (Thr345/Ser346), geometric mean of at least 2 experiments
Chain of IRAK4 auto-phosphorylation (Q9NWZ3 whole entry): as above
In short: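 Karpas-299 cells were preincubated 1 h at 37 °C with compound (10-point half-log series, top 30 μM), then stimulated 10 min with 22.7 ng/mL IL-1β. Cells were fixed and stained for pIRAK4 (Thr345/Ser346), and per-cell fluorescence was quantified by high-content imaging. IC50 values are geometric means of at least 2 experiments.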

[4] = 18 h, geometric mean of at least n=2, * n = 1, read-out: hTHP1, IL1β stim, IL8 release red. IC50
[5] = Homo sapiens, THP-1, 18 h, geometric mean of at least n=2, * n = 1, read-out: hTHP1, IL1β stim, IL8 release red. IC50

Molecule | IC50 [1, 4] [nM] | IC50 [2] [nM] | IC50 [3] [nM] | IC50 [1, 5] [nM]
2-((1r,4r)-4-(cyclopropanecarboxamido)cyclohexyl)-6-methoxy-N-(pyrazolo[1,5-a]pyrimidin-3-yl)-2H-indazole-5-carboxamide [Example 26] | 25 | 1.6 | 26 | –
6-Cyclopropoxy-2-((1r,4r)-4-(N-methylacetamido)cyclohexyl)-N-(pyrazolo[1,5-a]pyrimidin-3-yl)-2H-indazole-5-carboxamide [Example 33] | 30 | 1 | 45 | –
COc1cc2nn([C@H]3CCC[C@@H](O)C3)cc2cc1C(=O)Nc1cnc2cccnn12 (single isomer, unassigned) [Example 10] | – | 1.2 | 19 | 14
COc1cc2nn([C@H]3CCC[C@@H](O)C3)cc2cc1C(=O)Nc1cnn2cccnc12 (single isomer, unassigned) [Example 13] | – | 6.5 | 816 | 59
COc1cc2nn([C@H]3CCC[C@@H](O)C3)cc2cc1C(=O)Nc1cnn2cccnc12 (single isomer, unassigned) [Example 14] | 38 | 17.7 | 171 | –
O=C(Nc1cnn2cccnc12)c1cc2cn([C@H]3CCC[C@H](O)C3)nc2cc1OC1CC1 (single isomer, unassigned) [Example 19] | – | 1 | 47 | 35
COc1cc2nn([C@H]3CCC(N(C)C(C)=O)C[C@@H]3C)cc2cc1C(=O)Nc1cnc2cccnn12 (single isomer, unassigned) [Example 34, N-(imidazo[1,2-b]pyridazin-3-yl)-6-methoxy-2-((1S,2S,4R*)-2-methyl-4-(N-methylacetamido)cyclohexyl)-2H-indazole-5-carboxamide] | – | 2 | 31 | 22
COc1cc2nn(C3CCC(N(C)C(=O)[C@H]4C[C@H](O)C4)CC3)cc2cc1C(=O)Nc1cnn2cccnc12 (stereo partly drawn) [Example 97, 2-((1R,4r)-4-((1r,3R)-3-hydroxy-N-methylcyclobutane-1-carboxamido)cyclohexyl)-6-methoxy-N-(pyrazolo[1,5-a]pyrimidin-3-yl)-2H-indazole-5-carboxamide] | – | 0.7 | 15 | –
COc1cc2nn(C3CCC(N(C)C(=O)C4CC(O)C4)CC3)cc2cc1C(=O)Nc1cnn2cnccc12 [Example 98, 2-((1R,4r)-4-((1s,3S)-3-hydroxy-N-methylcyclobutane-1-carboxamido)cyclohexyl)-6-methoxy-N-(pyrazolo[1,5-c]pyrimidin-3-yl)-2H-indazole-5-carboxamide] | – | 0.6 | 20 | –
COc1cc2nn([C@H]3CC[C@H](N(C)C(=O)C(C)(C)O)CC3)cc2cc1C(=O)Nc1cnn2cnccc12 [Example 99, 2-((1r,4r)-4-(2-Hydroxy-N,2-dimethylpropanamido)cyclohexyl)-6-methoxy-N-(pyrazolo[1,5-c]pyrimidin-3-yl)-2H-indazole-5-carboxamide] | – | 1.2 | 35 | –
CO[C@H]1C[C@H](Oc2cc3nn(C4CCC5(CC4)CN(C(C)=O)C5)cc3cc2C(=O)Nc2cnc3cccnn23)C1 [Example 100, 2-(2-Acetyl-2-azaspiro[3.5]nonan-7-yl)-N-(imidazo[1,2-b]pyridazin-3-yl)-6-((1r,3r)-3-methoxycyclobutoxy)-2H-indazole-5-carboxamide] | – | < 0.03 | 6 | –
CO[C@H]1C[C@@H](Oc2cc3nn(C4CCC5(CC4)CN(C(C)=O)C5)cc3cc2C(=O)Nc2cnc3cccnn23)C1 [Example 101, 2-(2-Acetyl-2-azaspiro[3.5]nonan-7-yl)-N-(imidazo[1,2-b]pyridazin-3-yl)-6-((1s,3s)-3-methoxycyclobutoxy)-2H-indazole-5-carboxamide] | – | < 0.4 | 31 | –
COc1cc2nn([C@H]3CC[C@H](N(C)C(=O)C[C@H](C)O)CC3)cc2cc1C(=O)Nc1cnn2cccnc12 [Example 110, 2-((1S,4r)-4-((S)-3-Hydroxy-N-methylbutanamido)cyclohexyl)-6-methoxy-N-(pyrazolo[1,5-a]pyrimidin-3-yl)-2H-indazole-5-carboxamide] | – | 0.9 | 16 | –
COc1cc2nn([C@H]3CC[C@H](N(C)C(=O)C[C@@H](C)O)CC3)cc2cc1C(=O)Nc1cnn2cccnc12 [Example 111, 2-((1R,4r)-4-((R)-3-Hydroxy-N-methylbutanamido)cyclohexyl)-6-methoxy-N-(pyrazolo[1,5-a]pyrimidin-3-yl)-2H-indazole-5-carboxamide] | – | 0.9 | 27 | –

The next lines start with the values.

IC50 [1, 4] [nM] | IC50 [2] [nM] | IC50 [3] [nM] | IC50 [1, 5] [nM] | Molecule
– | 0.5 | 31 | 16 | COc1cc2nn(C3CCC4(CC3)CC(C)(O)C4)cc2cc1C(=O)Nc1cnc2cccnn12 (single isomer, unassigned) [Example 5, 2-(2-Hydroxy-2-methylspiro[3.5]nonan-7-yl)-N-(imidazo[1,2-b]pyridazin-3-yl)-6-methoxy-2H-indazole-5-carboxamide]
31 | 0.7 | 35 | – | O=C(Nc1cnn2cccnc12)c1cc2cn([C@H]3CCC[C@H](O)C3)nc2cc1OC1CC1 (single isomer, unassigned) [Example 20]
– | 0.5 | 31 | 20 | CC(=O)N1CC2(CC[C@@H](n3cc4cc(C(=O)Nc5cnn6cccnc56)c(OC5CC5)cc4n3)[C@H](C)C2)C1 (single isomer, unassigned) [Example 29]
14 | < 0.3 | 46 | – | CC(=O)N1CC2(CC[C@@H](n3cc4cc(C(=O)Nc5cnn6cccnc56)c(OC5CC5)cc4n3)[C@@H](C)C2)C1 (single isomer, unassigned) [Example 30]
32 | 0.8 | 71 | – | CC(=O)N1CC2(CC[C@@H](n3cc4cc(C(=O)Nc5cnn6cccnc56)c(OC5CC5)cc4n3)[C@@H](C)C2)C1 (single isomer, unassigned) [Example 31]
– | 0.3 | 6 | 3 | COc1cc2nn([C@@H]3CCC(N(C)C(C)=O)C[C@H]3C)cc2cc1C(=O)Nc1cnc2cccnn12 (single isomer, unassigned) [Example 37, N-(imidazo[1,2-b]pyridazin-3-yl)-6-methoxy-2-(1R,2R,4R*)-2-methyl-4-(N-methylacetamido)cyclohexyl)-2H-indazole-5-carboxamide]
– | 0.7 | 19 | – | COc1cc2nn([C@H]3CC[C@H](n4ccnn4)CC3)cc2cc1C(=O)Nc1cnc2cccnn12 [Example 102, 2-((1r,4r)-4-(1H-1,2,3-triazol-1-yl)cyclohexyl)-N-(imidazo[1,2-b]pyridazin-3-yl)-6-methoxy-2H-indazole-5-carboxamide]
– | 0.6 | 17 | – | COc1cc2nn([C@H]3CC[C@H](n4nccn4)CC3)cc2cc1C(=O)Nc1cnc2cccnn12 [Example 103, 2-((1r,4r)-4-(2H-1,2,3-triazol-2-yl)cyclohexyl)-N-(imidazo[1,2-b]pyridazin-3-yl)-6-methoxy-2H-indazole-5-carboxamide]
– | 0.3 | 13 | – | COc1cc2nn([C@H]3CC[C@H](N(C)C(=O)N4CC[C@H](O)C4)CC3)cc2cc1C(=O)Nc1cnc2cccnn12 [Example 116, 2-((1S,4r)-4-((S)-3-Hydroxy-N-methylpyrrolidine-1-carboxamido)cyclohexyl)-N-(imidazo[1,2-b]pyridazin-3-yl)-6-methoxy-2H-indazole-5-carboxamide]
– | 0.3 | 22 | – | COc1cc2nn([C@H]3CC[C@H](N(C)C(=O)N4CC[C@@H](O)C4)CC3)cc2cc1C(=O)Nc1cnc2cccnn12 [Example 117, 2-((1R,4r)-4-((R)-3-Hydroxy-N-methylpyrrolidine-1-carboxamido)cyclohexyl)-N-(imidazo[1,2-b]pyridazin-3-yl)-6-methoxy-2H-indazole-5-carboxamide]
